Read-outs that look alike come from different tables or passages of the source.
How the values were obtained:
[1] = target: T1, PARP2 L269A-mCherry (Homo sapiens, UniProt Q9UGN5, L282A); type: cell-based; details: 10 μM, 16 h; hit = statistically significant (p < 0.05)
[2] = system: U-2 OS cells; test: S/G2-phase cell cycle shift from median Hoechst 33342 intensity (trapping-like phenotype); type: cell-based, human; details: for S/G2 enrichment in words: median Hoechst intensity
[3] = system: PARP1; details: cited from earlier work
[4] = target: T1, PARP2 L269A-mCherry; test: cell-based; type: cell-based
[5] = system: U-2 OS cells; test: cells; details: Homo sapiens, U2OS, 24 h
[6] = system: PARP2; details: cited from earlier work
[7] = system: PARP2; details: reported value, footnote b: cell-based assay; literature-derived, no reference given; cited from earlier work
[8] = system: PARP1; details: reported value, footnote b: cell-based assay; literature-derived, no reference given; cited from earlier work
[9] = target: T1, PARP2 L269A-mCherry; details: shNT and shHPF1 cells, 24 h
[10] = system: PARP2; set-up: method as in PMID 36961901; details: reported; ref [23]; cited from earlier work
[11] = target: PARP2 (Homo sapiens, UniProt Q9UGN5); details: 10 μM olaparib, CCRF-CEM lysate, 37-70 °C
Chain of PARP2 (Homo sapiens, UniProt Q9UGN5) (Q9UGN5 whole entry): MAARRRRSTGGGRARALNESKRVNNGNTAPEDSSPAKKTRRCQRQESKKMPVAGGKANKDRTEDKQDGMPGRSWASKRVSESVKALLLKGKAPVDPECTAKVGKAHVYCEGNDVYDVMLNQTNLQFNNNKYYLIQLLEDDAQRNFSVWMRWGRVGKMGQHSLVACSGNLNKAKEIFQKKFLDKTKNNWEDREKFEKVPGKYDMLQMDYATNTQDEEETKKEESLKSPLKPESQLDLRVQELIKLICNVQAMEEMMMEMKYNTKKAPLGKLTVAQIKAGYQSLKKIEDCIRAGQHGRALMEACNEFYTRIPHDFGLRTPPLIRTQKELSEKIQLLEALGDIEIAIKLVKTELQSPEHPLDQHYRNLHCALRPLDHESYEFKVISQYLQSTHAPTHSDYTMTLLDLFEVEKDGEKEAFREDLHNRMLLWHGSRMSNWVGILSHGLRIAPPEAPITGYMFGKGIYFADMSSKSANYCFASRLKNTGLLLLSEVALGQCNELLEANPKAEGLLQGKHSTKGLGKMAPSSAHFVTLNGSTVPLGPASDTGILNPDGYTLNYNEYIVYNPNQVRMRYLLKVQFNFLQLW

[12] = system: U-2 OS cells; details: 24 h PARPi
[13] = system: PARP2; details: biophysical measures; ref [26]; cited from earlier work
[14] = target: T1, PARP2 L269A-mCherry; details: 24-h PARPi treatment
[15] = reported value, footnote a: biochemical assay, literature-derived, no reference given, read-out: PARP1 IC50
[16] = CeTEAM stabilization, live U-2 OS dual biosensor cells, 24 h PARPi gradient, n = 3, read-out: PARP2 L269A-mCherry EC50
[17] = Homo sapiens, U2OS, 24 h, read-out: S/G2 shift EC50
[18] = Homo sapiens, U2OS, 24 h, read-out: S/G2 shift EC50 (text)
[19] = read-out: S/G2 shift EC50, shHPF1
[20] = read-out: S/G2 shift EC50, shNT
[21] = reported value, footnote a: biochemical assay, literature-derived, no reference given, read-out: PARP2 IC50
[22] = PARP2 L269A-mCherry EC50, CeTEAM stabilization, live U-2 OS dual biosensor cells, 24 h PARPi gradient, n = 3
[23] = median Hoechst intensity change, 24 h PARPi gradient, PARP1/2 biosensor U-2 OS cells, read-out: S/G2 shift EC50

T1 sequence (Q9UGN5 other isoform, or with tags, fused parts or gaps L269A): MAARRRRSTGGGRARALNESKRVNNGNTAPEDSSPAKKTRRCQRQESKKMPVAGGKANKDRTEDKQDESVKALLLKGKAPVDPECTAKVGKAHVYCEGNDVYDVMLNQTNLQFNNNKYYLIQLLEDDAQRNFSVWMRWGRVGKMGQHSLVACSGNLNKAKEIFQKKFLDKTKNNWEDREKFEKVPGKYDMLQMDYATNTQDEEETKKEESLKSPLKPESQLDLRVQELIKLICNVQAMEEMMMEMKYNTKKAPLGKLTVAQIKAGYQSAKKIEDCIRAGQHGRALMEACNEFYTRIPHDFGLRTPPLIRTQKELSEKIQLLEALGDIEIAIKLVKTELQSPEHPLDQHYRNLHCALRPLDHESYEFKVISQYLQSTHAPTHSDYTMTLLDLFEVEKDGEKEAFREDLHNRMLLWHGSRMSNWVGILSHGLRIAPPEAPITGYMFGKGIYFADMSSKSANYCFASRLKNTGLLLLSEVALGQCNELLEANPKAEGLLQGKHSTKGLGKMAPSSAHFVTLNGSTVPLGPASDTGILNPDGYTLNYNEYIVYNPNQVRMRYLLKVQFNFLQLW

Compound: Cc1cc(Nc2nc(N[C@@H](C)c3ccc(F)cc3)c(C#N)cc2F)[nH]n1 [AZ960]
- PARP2 L269A-mCherry abundance change versus DMSO control [1]: also affected PARP2 L269A-mCherry

Compound: CC(C)(O)c1ccc(-c2nc3c(F)cc(F)cc3c(=O)[nH]2)cc1 [Tankyrase-IN-2]
- S/G2 enrichment in words ([2]; 24 h): no observable activity
- IC50 [3, 15]: 710 nM
- EC50 [4, 16]: 13200 nM

Compound: Cn1ncnc1[C@H]1c2n[nH]c(=O)c3cc(F)cc(c23)N[C@@H]1c1ccc(F)cc1 [Talazoparib]
- EC50 [2, 17]: 0.278 nM
- EC50 [2, 18]: 0.28 nM
- EC50 [5, 19]: 0.09 nM
- EC50 [5, 20]: 0.29 nM

Compound: NC(=O)c1cccc2nc(-c3ccc([C@@H]4CCCN4)cc3F)[nH]c12 [A-966492]
- EC50 [2, 17]: 41.6 nM
- IC50 [7]: 1.5 nM
- IC50 [8]: 1 nM

Compound: NC(=O)c1ccc(I)c([N+](=O)[O-])c1 [Iniparib]
- PARP2 L269A-mCherry biosensor response irrespective of HPF1 levels [9]: unaffected
- PARP2 L269A-mCherry stabilization in words ([4]; concentration gradient, 24 h): inactive

Compound: O=C(c1cc(Cc2n[nH]c(=O)c3ccccc23)ccc1F)N1CC(CNC2CC2)C1 [Venadaparib]
- EC50 [2, 17]: 197 nM
- IC50 ([3]; biochemical inhibition data, ref [30], [31], read-out: Biochemical inhibition of PARP1): 0.8 nM
- EC50 [4, 22]: 5.94 nM
- EC50 ([4]; PARP2 L269A-mCherry stabilization EC50, live-cell CeTEAM, 24 h): 5.94 nM
- IC50 ([6]; biochemical inhibition data, ref [30], [31], read-out: Biochemical inhibition of PARP2): 3 nM

Compound: COC1CCN(C(=O)c2cc(Cc3n[nH]c(=O)c4ccccc34)ccc2F)CC1 [AZD2461]
- EC50 [2, 17]: 146 nM
- IC50 [3, 15]: 5 nM
- EC50 [4, 22]: 36.3 nM
- IC50 [6, 21]: 2 nM

Compound: O=c1[nH]nc2c3c(cccc13)N=C(CN1Cc3ccccc3C1)N2 [E7449]
- EC50 [2, 23]: 3970 nM

Compound: NC(=O)c1cccc(N)c1 [3-AB, 3-aminobenzamide]
- S/G2 enrichment in words ([2]; 24 h): no observable activity

Compound: Cn1cccc1/C=C1\C(=O)NC(=O)c2ccccc21 [BYK204165]
- EC50 [4, 16]: 1670 nM
- IC50 [6, 21]: 4170 nM

Compound: Oc1cccc2c(O)nccc12 [1,5-Isoquinolinediol]
- EC50 ([4]; PARP2 L269A-mCherry EC50): 1000 nM

Compound: Cc1nc(Nc2[nH]nc3c2CN(C(=O)N[C@H](CN(C)C)c2ccccc2)C3(C)C)c2sccc2n1 [PF-3758309]
- PARP2 L269A-mCherry abundance change versus DMSO control [1]: also affected PARP2 L269A-mCherry

Compound: CCc1cc2ncc(CN3CCN(c4ccc(C(=O)NC)nc4)CC3)cc2[nH]c1=O [AZD5305]
- EC50 [2, 17]: 60.7 nM
- EC50 [2, 18]: ~61 nM
- IC50 [6, 21]: 1400 nM

Compound: O=C(c1cc(Cc2n[nH]c(=O)c3ccccc23)ccc1F)N1CCN(C(=O)C2CC2)CC1 [Olaparib]
- EC50 [2, 17]: 25.7 nM
- EC50 [5, 19]: 1.89 nM
- EC50 [5, 20]: 14.4 nM
- Endogenous PARP2 stability by CETSA [11]: negligible shifts
- IC50 [6, 21]: 1 nM

Compound: NC(=O)c1cc(F)cc2c1C(=O)N(C1CCN(C3CCC(F)(F)CC3)CC1)C2 [NMS-P118, 2-[1-(4,4-Difluorocyclohexyl)piperidin-4-yl]-6-fluoro-3-oxo-2,3-dihydro-1H-isoindole-4-carboxamide]
- EC50 [2, 17]: 5880 nM
- IC50 [3, 15]: 9 nM
- IC50 [6, 21]: 1390 nM

Compound: CN(C)CC(=O)Nc1ccc2[nH]c(=O)c3ccccc3c2c1 [PJ34]
- EC50 [2, 23]: 3750 nM
- IC50 [3, 15]: 110 nM
- PARP2 cellular EC50 worse than reported IC50 ([4]; CeTEAM EC50 compared to reported IC50): > 10 fold

Compound: C[C@]12CCCN1CC1=NNC(=O)c3cc(F)cc4[nH]c2c1c34 [Pamiparib]
- EC50 [2, 17]: 2.96 nM
- EC50 [4, 22]: 1.47 nM
- IC50 [6, 21]: 0.5 nM

Compound: O=C(c1cc(Cn2c(=O)[nH]c(=O)c3c(F)cccc32)ccc1F)N1CCN(c2ncccn2)CC1 [Senaparib]
- EC50 [2, 17]: 0.398 nM
- EC50 [2, 18]: 0.4 nM
- IC50 [3, 15]: 0.48 nM
- EC50 ([4]; PARP2 L269A-mCherry EC50): 5.26 nM
- EC50 ([4]; PARP2 L269A-mCherry stabilization EC50): 5.3 nM
- IC50 [6, 21]: 1.6 nM

Compound: CNCc1ccc(-c2cc3cc(F)cc(C(N)=O)c3o2)cc1 [Mefuparib]
- EC50 [2, 17]: 2.36 nM
- IC50 [3, 15]: 3.2 nM
- EC50 [4, 22]: 91.6 nM
- IC50 [6, 21]: 1.9 nM

Compound: N#Cc1cccnc1N1CCN(C(=O)c2cccc(Cc3n[nH]c(=O)c4ccccc34)c2)CC1 [AZ9482]
- EC50 [2, 17]: 0.351 nM
- EC50 [2, 18]: 0.35 nM
- IC50 [7]: 1 nM

Compound: C[C@]1(c2nc3c(C(N)=O)cccc3[nH]2)CCCN1 [Veliparib]
- EC50 ([12]; read-out: S/G2 shift EC50, shHPF1, HPF1 knockdown): 55 nM
- EC50 ([12]; read-out: S/G2 shift EC50, shNT, control hairpin shNT): 709 nM
- EC50 [2, 23]: 528 nM

Compound: NC(=O)c1cccc2cn(-c3ccc([C@@H]4CCCNC4)cc3)nc12 [Niraparib, 2-{4-[(3S)-piperidin-3-yl]phenyl}-2H-indazole-7-carboxamide]
- EC50 [5, 19]: 1.74 nM
- EC50 [5, 20]: 7.85 nM
- Binding to PARP2 worse than to PARP1 [13]: ~50 fold
- PARP2 L269A-mCherry stabilization by Western blot [14]: stabilized PARP2 L269A significantly worse than PARP1 L713F

Compound: O=C(Nc1c[nH]nc1-c1nc2ccc(CN3CCOCC3)cc2[nH]1)NC1CC1 [AT9283]
- PARP2 L269A-mCherry abundance change versus DMSO control [1]: modest but significant effect

Compound: O=c1[nH]c(SCCN2CCN(c3ccccn3)CC2)nc2ccccc12 [MC2050]
- IC50 [3, 15]: 9.3 nM
- EC50 [4, 16]: 2500 nM
- IC50 [6, 21]: 549 nM

Compound: bisindolylmaleimide I
- PARP2 L269A-mCherry abundance change versus DMSO control [1]: significantly decreased

Compound: O=C(c1cc(Cc2n[nH]c(=O)c3ccccc23)ccc1F)N1CCn2nc(C(F)(F)F)nc2C1 [Fluzoparib]
- EC50 [2, 17]: 46300 nM
- EC50 [4, 22]: 27.3 nM

Compound: CNCc1ccc(-c2[nH]c3cc(F)cc4c3c2CCNC4=O)cc1 [Rucaparib]
- EC50 [2, 17]: 23.7 nM

Compound: CN(C)Cc1ccc(-c2nc3cccc4c3n2CCNC4=O)cc1 [AG14361]
- EC50 [2, 17]: 1120 nM
- IC50 [8]: 14 nM
- EC50 [4, 22]: 84 nM

Reference: PMC11986510, “Duplexed CeTEAM drug biosensors reveal determinants of PARP inhibitor selectivity in cells” (The Journal of Biological Chemistry, 2025)
